Test results: US9426996B2, “Use of benzoxaboroles as volatile antimicrobial agents on meats, plants, or plant parts” (AgroFresh Inc., priority 2013, dated 2016)

Assays:
[1] = test system: Phytophthora capsici; assay: in vivo volatile assay on squash; conditions: 10 mg/L, 21° C. for 3 days
Procedure: To test the effect of Compound A (FIG. 1) on vegetables, potato, onion and squash were obtained from a local store, and the surface sterilized with 0.825% sodium hypochlorite (NaOCl). A slice of potato or two leaves of onion were placed in a sterile Petri plate, while whole squash were placed in a sterile 10.8-cup SnapWare airtight container (Model #109842). Each slice of potato was inoculated with 20 μL of a 1×10^5 spores/mL Fusarium sambucinum suspension, while onions were inoculated with 20 μL of a 1×10^6 spores/mL Botrytis cinerea suspension. For inoculation of squash, a small core was removed, and a mycelial plug of Phytophthora capsici was inserted and capped with the core. Compound A was diluted in acetone, and added to a 42.5 mm Whatman #1 filter disk (Cat. No. 1001-042) attached to the inner side of the lid at a rate to achieve a final headspace concentration of 10 mg/L. The acetone was permitted to evaporate for 5 minutes before parafilm sealing the plates or closing the airtight containers. The vegetables were incubated at 21° C. for 3 days, and evaluated for mycelial growth, dry rot, and water-soaked appearance (mm diameter) with results summarized in Table 13.

[2] = test system: Botrytis cinerea; assay: in vivo volatile bioassay using strawberry, grape and blueberry
Procedure: In order to assess the in vivo activity of volatile antimicrobial Compound A in fruit, a volatile bioassay is developed using strawberry, grape and blueberry. Eight strawberries, 16 grapes or 30 blueberries (per replicate) are placed in a commercially relevant sized PET clamshell, with the stem end facing up for blueberries and grapes, and downwards for strawberries. A fresh wound is inoculated with 20 μL (strawberry and grape) or 10 μL (blueberry) of 1×10^6 per mL Botrytis cinerea spore suspension. The clamshells are placed inside a 10.8-cup SnapWare airtight container (Model #109842). A 42.5 mm Whatman #1 filter disk (Cat. No. 1001-042) is placed on a watch glass. Compound A is dissolved in acetone and added to the disks in a dose dependent manner to produce a final headspace concentration of 0.4, 2, or 10 mg/L. The acetone is permitted to evaporate for five minutes. The containers are then closed with lids and placed for three days at 21° C. After storage, fruits are evaluated for incidence and severity (0 to 4) of disease for an additional three days at 21° C., with results summarized in Table 17.

[3] = test system: Botrytis cinerea; assay: in vivo dose by time volatile bioassay using strawberry; conditions: for Incidence (%) / Severity (0 to 3): strawberries
Procedure: In order to assess the in vivo dose by time activity of volatile antimicrobial compounds, a volatile bioassay is developed using strawberry. Two fruit are placed inside a 240 mL jar, with the calyx facing downwards. […] Whatman filter paper (Cat. No. 1822-024) is placed inside duplicate jar lids. Compound A (benzoxaborole; FIG. 1) is diluted in acetone, and the appropriate amount of compound is added to the disks at two rates 0.008 or 0.125 mg. The acetone is permitted to evaporate for 5 minutes. The jars are capped with the lids containing the fungicide, and incubated with the volatile fungicide for 1, 3, 6, 24 or 72 hours. After incubation, lids containing the disk with Compound A are replaced with new lids without Compound A. All samples are maintained at 21° C. for 3 days, and then the lids are removed and maintained for an additional 48 hours, all at 90% relative humidity (R.H.). The fruit are evaluated for incidence and severity of disease and appearance of phytotoxicity.

[4] = Blueberry, 0.4 mg/L, evaluation day 0
[5] = Blueberry, 0.4 mg/L, evaluation day 1
[6] = Blueberry, 0.4 mg/L, evaluation day 2
[7] = Blueberry, 0.4 mg/L, evaluation day 3
[8] = Blueberry, 2 mg/L, evaluation day 0
[9] = Blueberry, 2 mg/L, evaluation day 1
[10] = Blueberry, 2 mg/L, evaluation day 2
[11] = Blueberry, 2 mg/L, evaluation day 3
[12] = Blueberry, 10 mg/L, evaluation day 0
[13] = Blueberry, 10 mg/L, evaluation day 1
[14] = Blueberry, 10 mg/L, evaluation day 2
[15] = Blueberry, 10 mg/L, evaluation day 3
[16] = Grape, 0.4 mg/L, evaluation day 0
[17] = Grape, 0.4 mg/L, evaluation day 1
[18] = Grape, 0.4 mg/L, evaluation day 2
[19] = Grape, 0.4 mg/L, evaluation day 3
[20] = Grape, 2 mg/L, evaluation day 2
[21] = Grape, 2 mg/L, evaluation day 3
[22] = Grape, 10 mg/L, evaluation day 2
[23] = Grape, 10 mg/L, evaluation day 3
[24] = Strawberry, 0.4 mg/L, evaluation day 0
[25] = Strawberry, 0.4 mg/L, evaluation day 1
[26] = Strawberry, 0.4 mg/L, evaluation day 2
[27] = Strawberry, 0.4 mg/L, evaluation day 3
[28] = Strawberry, 2 mg/L, evaluation day 0
[29] = Strawberry, 2 mg/L, evaluation day 1
[30] = Strawberry, 2 mg/L, evaluation day 2
[31] = Strawberry, 2 mg/L, evaluation day 3
[32] = Strawberry, 10 mg/L, evaluation day 0
[33] = Strawberry, 10 mg/L, evaluation day 1
[34] = Strawberry, 10 mg/L, evaluation day 2
[35] = Strawberry, 10 mg/L, evaluation day 3

SMILES: OB1OCc2cc(F)ccc21 [Compound A]
- Mycelial growth [1]: 1.1 mm
- Water soaked [1]: 5.3 mm
- Incidence (%) [2, 4]: 21%
- Severity (0-4) [2, 4]: 0.1
- Incidence (%) [2, 5]: 21%
- Severity (0-4) [2, 5]: 0.2
- Incidence (%) [2, 6]: 40.3%
- Severity (0-4) [2, 6]: 0.5
- Incidence (%) [2, 7]: 62.9%
- Severity (0-4) [2, 7]: 1
- Incidence (%) [2, 8]: 9.7%
- Severity (0-4) [2, 8]: 0
- Incidence (%) [2, 9]: 9.7%
- Severity (0-4) [2, 9]: 0
- Incidence (%) [2, 10]: 9.7%
- Severity (0-4) [2, 10]: 0.1
- Incidence (%) [2, 11]: 40.3%
- Severity (0-4) [2, 11]: 0.6
- Incidence (%) [2, 12]: 12.9%
- Severity (0-4) [2, 12]: 0.1
- Incidence (%) [2, 13]: 12.9%
- Severity (0-4) [2, 13]: 0.1
- Incidence (%) [2, 14]: 12.9%
- Severity (0-4) [2, 14]: 0.2
- Incidence (%) [2, 15]: 41.9%
- Severity (0-4) [2, 15]: 0.6
- Incidence (%) [2, 16]: 3.1%
- Severity (0-4) [2, 16]: 0
- Incidence (%) [2, 17]: 3.1%
- Severity (0-4) [2, 17]: 0
- Incidence (%) [2, 18]: 15.6%
- Severity (0-4) [2, 18]: 0.2
- Incidence (%) [2, 19]: 62.5%
- Severity (0-4) [2, 19]: 0.5
- Severity (0-4) ([2]; Grape, 2 mg/L, evaluation day 0): 0
- Severity (0-4) ([2]; Grape, 2 mg/L, evaluation day 1): 0
- Incidence (%) [2, 20]: 0%
- Severity (0-4) [2, 20]: 0
- Incidence (%) [2, 21]: 56.3%
- Severity (0-4) [2, 21]: 0.3
- Severity (0-4) ([2]; Grape, 10 mg/L, evaluation day 0): 0
- Severity (0-4) ([2]; Grape, 10 mg/L, evaluation day 1): 0
- Incidence (%) [2, 22]: 3.1%
- Severity (0-4) [2, 22]: 0
- Incidence (%) [2, 23]: 56.3%
- Severity (0-4) [2, 23]: 0.4
- Incidence (%) [2, 24]: 0%
- Severity (0-4) [2, 24]: 0
- Incidence (%) [2, 25]: 21.4%
- Severity (0-4) [2, 25]: 0.1
- Incidence (%) [2, 26]: 21.4%
- Severity (0-4) [2, 26]: 0.1
- Incidence (%) [2, 27]: 28.6%
- Severity (0-4) [2, 27]: 0.5
- Incidence (%) [2, 28]: 14.3%
- Severity (0-4) [2, 28]: 0.1
- Incidence (%) [2, 29]: 50%
- Severity (0-4) [2, 29]: 0.3
- Incidence (%) [2, 30]: 50%
- Severity (0-4) [2, 30]: 0.3
- Incidence (%) [2, 31]: 64.3%
- Severity (0-4) [2, 31]: 0.5
- Incidence (%) [2, 32]: 7.1%
- Severity (0-4) [2, 32]: 0
- Incidence (%) [2, 33]: 35.7%
- Severity (0-4) [2, 33]: 0.2
- Incidence (%) [2, 34]: 42.9%
- Severity (0-4) [2, 34]: 0.5
- Incidence (%) [2, 35]: 42.9%
- Severity (0-4) [2, 35]: 0.8
- Incidence (%) ([3]; 0.008 mg/disk, Time 3 h): 0%
- Severity (0 to 3) ([3]; 0.008 mg/disk, Time 3 h): 0.0
- Incidence (%) ([3]; 0.008 mg/disk, Time 6 h): 33%
- Severity (0 to 3) ([3]; 0.008 mg/disk, Time 6 h): 1.0
- Incidence (%) ([3]; 0.008 mg/disk, Time 24 h): 67%
- Severity (0 to 3) ([3]; 0.008 mg/disk, Time 24 h): 2.3
- Incidence (%) ([3]; 0.008 mg/disk, Time 72 h): 33%
- Severity (0 to 3) ([3]; 0.008 mg/disk, Time 72 h): 1.0
- Incidence (%) ([3]; 0.125 mg/disk, Time 1 h): 67%
- Severity (0 to 3) ([3]; 0.125 mg/disk, Time 1 h): 2.3
- Incidence (%) ([3]; 0.125 mg/disk, Time 3 h): 33%
- Severity (0 to 3) ([3]; 0.125 mg/disk, Time 3 h): 1.3
- Incidence (%) ([3]; 0.125 mg/disk, Time 6 h): 0%
- Severity (0 to 3) ([3]; 0.125 mg/disk, Time 6 h): 0.0
- Incidence (%) ([3]; 0.125 mg/disk, Time 24 h): 0%
- Severity (0 to 3) ([3]; 0.125 mg/disk, Time 24 h): 0.0
- Incidence (%) ([3]; 0.125 mg/disk, Time 72 h): 0%
- Severity (0 to 3) ([3]; 0.125 mg/disk, Time 72 h): 0.0
- control of Botrytis cinerea ([3]; strawberry, 0.125 mg/disk, after 6 hour exposure): 100%
- appearance of phytotoxicity ([3]; strawberry, 0.008 or 0.125 mg): no evidence of phytotoxicity
